Values quoted from earlier work as cited in US6500801B1, “Treatment for Dutch elm disease” (The Governing Council of the University of Toronto, priority 1997, dated 2002).

Tested on: strains of O. ulmi

| Compound | inhibition of growth of strains of O. ulmi |
| --- | --- |
| CC1=Cc2c(c(C)cc(O)c2C(C)C)C(=O)C1=O [mansonone G] | inhibit the growth |
| CC1=Cc2c(C(C)C)ccc(C)c2C(=O)C1=O [mansonone C] | inhibit the growth |
| CC1=Cc2c(c(C)cc3c2C(C)CO3)C(=O)C1=O (stereo not drawn) [mansonone D] | inhibit the growth |
| CC1=C2OCC(C)c3ccc(C)c(c32)C(=O)C1=O (stereo not drawn) [mansonone E] | inhibit the growth |
| CC1=COC2=C(C)C(=O)C(=O)c3c(C)ccc1c32 [mansonone F] | inhibit the growth |
| CC1=CC2=C(C(=O)C1=O)C(C)CCC2C(C)C (stereo not drawn) [mansonone A] | inhibit the growth |
